# Measurements as given in PubChem BioAssay AID1963981 (Molecular Pharmacology Branch, DTP, NCI, 2024).
# Test system: 354836-022-R-J1-PDC multicell spheroid viability
# Assay: Anticancer human tumor 354836-022-R-J1-PDC patient-derived head and neck squamous cell carcinoma cell line growth inhibition [PI3K]
# Conditions: for IC50: curve of first compound; for viability, T/C: stronger effect = lower value
# In short: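 Agents were dosed from a top concentration near clinical Cmax (otherwise 10 microM) in half-log decrements, alone or combined with PI3K inhibitors. The spheroids contain tumor cells plus endothelial (HUVEC) and MSC stroma; viability is measured.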
# [1] = second compound 0.0316 µM, first compound 0.0316 µM
# [2] = second compound 0.0316 µM, first compound 0.1 µM
# [3] = second compound 0.0316 µM, first compound 0.316 µM
# [4] = second compound 0.0316 µM, first compound 1 µM
# [5] = second compound 0.0316 µM, first compound 3.16 µM
# [6] = second compound 0.0316 µM, first compound 10 µM
# [7] = second compound 0.1 µM, first compound 0.0316 µM
# [8] = second compound 0.1 µM, first compound 0.1 µM
# [9] = second compound 0.1 µM, first compound 0.316 µM
# [10] = second compound 0.1 µM, first compound 1 µM
# [11] = second compound 0.1 µM, first compound 3.16 µM
# [12] = second compound 0.1 µM, first compound 10 µM
# [13] = second compound 0.316 µM, first compound 0.0316 µM
# [14] = second compound 0.316 µM, first compound 0.1 µM
# [15] = second compound 0.316 µM, first compound 0.316 µM
# [16] = second compound 0.316 µM, first compound 1 µM
# [17] = second compound 0.316 µM, first compound 3.16 µM
# [18] = second compound 0.316 µM, first compound 10 µM
# [19] = second compound 1 µM, first compound 0.0316 µM
# [20] = second compound 1 µM, first compound 0.1 µM
# [21] = second compound 1 µM, first compound 0.316 µM
# [22] = second compound 1 µM, first compound 1 µM
# [23] = second compound 1 µM, first compound 3.16 µM
# [24] = second compound 1 µM, first compound 10 µM
# [25] = second compound 3.16 µM, first compound 0.0316 µM
# [26] = second compound 3.16 µM, first compound 0.1 µM
# [27] = second compound 3.16 µM, first compound 0.316 µM
# [28] = second compound 3.16 µM, first compound 1 µM
# [29] = second compound 3.16 µM, first compound 3.16 µM
# [30] = second compound 3.16 µM, first compound 10 µM
# [31] = second compound 10 µM, first compound 0.0316 µM
# [32] = second compound 10 µM, first compound 0.1 µM
# [33] = second compound 10 µM, first compound 0.316 µM
# [34] = second compound 10 µM, first compound 1 µM
# [35] = second compound 10 µM, first compound 3.16 µM
# [36] = second compound 10 µM, first compound 10 µM
# 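Also: spheroids exposed to agents for seven days before the viability read.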
compound,measurement,setting,value
C#Cc1c(F)ccc2cc(O)cc(-c3ncc4c(N5CC6CCC(C5)N6)nc(OCC56CCCN5CC(F)C6)nc4c3F)c12 (stereo not drawn) + Cc1nc(NC(=O)N2CCCC2C(N)=O)sc1-c1ccnc(C(C)(C)C(F)(F)F)c1,IC50,second compound 0.0316 µM,> 10 µM
same,IC50,second compound 0.1 µM,> 10 µM
same,IC50,second compound 0.316 µM,> 10 µM
same,IC50,second compound 1 µM,> 10 µM
same,IC50,second compound 3.16 µM,> 10 µM
same,IC50,second compound 10 µM,< 0.0316 µM
same,"viability, T/C",[1],95%
same,"viability, T/C",[2],99.3%
same,"viability, T/C",[3],103%
same,"viability, T/C",[4],95.4%
same,"viability, T/C",[5],106%
same,"viability, T/C",[6],93.9%
same,"viability, T/C",[7],98.5%
same,"viability, T/C",[8],101%
same,"viability, T/C",[9],98.4%
same,"viability, T/C",[10],87.2%
same,"viability, T/C",[11],96%
same,"viability, T/C",[12],93.6%
same,"viability, T/C",[13],76%
same,"viability, T/C",[14],83.9%
same,"viability, T/C",[15],91.3%
same,"viability, T/C",[16],94.1%
same,"viability, T/C",[17],83.8%
same,"viability, T/C",[18],85.3%
same,"viability, T/C",[19],75.9%
same,"viability, T/C",[20],90.5%
same,"viability, T/C",[21],77.8%
same,"viability, T/C",[22],76.2%
same,"viability, T/C",[23],92.7%
same,"viability, T/C",[24],62.2%
same,"viability, T/C",[25],55.6%
same,"viability, T/C",[26],60.7%
same,"viability, T/C",[27],57.3%
same,"viability, T/C",[28],63.4%
same,"viability, T/C",[29],52.6%
same,"viability, T/C",[30],55.7%
same,"viability, T/C",[31],34.2%
same,"viability, T/C",[32],32.7%
same,"viability, T/C",[33],35.6%
same,"viability, T/C",[34],36.3%
same,"viability, T/C",[35],36.6%
same,"viability, T/C",[36],26%
C=CC(=O)N1CCN(c2nc(=O)n(-c3c(C)ccnc3C(C)C)c3nc(-c4c(O)cccc4F)c(F)cc23)C(C)C1 (stereo not drawn) + Cc1nc(NC(=O)N2CCCC2C(N)=O)sc1-c1ccnc(C(C)(C)C(F)(F)F)c1,IC50,second compound 0.0316 µM,> 10 µM
same,IC50,second compound 0.1 µM,> 10 µM
same,IC50,second compound 0.316 µM,> 10 µM
same,IC50,second compound 1 µM,> 10 µM
same,IC50,second compound 3.16 µM,> 10 µM
same,IC50,second compound 10 µM,< 0.0316 µM
same,"viability, T/C",[1],100%
same,"viability, T/C",[2],90.5%
same,"viability, T/C",[3],96.2%
same,"viability, T/C",[4],87.7%
same,"viability, T/C",[5],113%
same,"viability, T/C",[6],92.5%
same,"viability, T/C",[7],118%
same,"viability, T/C",[8],100%
same,"viability, T/C",[9],97.2%
same,"viability, T/C",[10],96.7%
same,"viability, T/C",[11],110%
same,"viability, T/C",[12],105%
same,"viability, T/C",[13],90.5%
same,"viability, T/C",[14],99.2%
same,"viability, T/C",[15],92.1%
same,"viability, T/C",[16],90.6%
same,"viability, T/C",[17],105%
same,"viability, T/C",[18],97.6%
same,"viability, T/C",[19],72.6%
same,"viability, T/C",[20],77.8%
same,"viability, T/C",[21],84.1%
same,"viability, T/C",[22],105%
same,"viability, T/C",[23],88%
same,"viability, T/C",[24],89.4%
same,"viability, T/C",[25],57.8%
same,"viability, T/C",[26],65.8%
same,"viability, T/C",[27],71.8%
same,"viability, T/C",[28],72.2%
same,"viability, T/C",[29],90.7%
same,"viability, T/C",[30],60.2%
same,"viability, T/C",[31],36.8%
same,"viability, T/C",[32],36.5%
same,"viability, T/C",[33],33.7%
same,"viability, T/C",[34],46.4%
same,"viability, T/C",[35],43.8%
same,"viability, T/C",[36],29.5%
CC(Cn1ccc(-c2ccc(C#N)c(Cl)c2)n1)NC(=O)c1cc(C(C)O)[nH]n1 (stereo not drawn) + Cc1nc(NC(=O)N2CCCC2C(N)=O)sc1-c1ccnc(C(C)(C)C(F)(F)F)c1,IC50,second compound 0.0316 µM,> 10 µM
same,IC50,second compound 0.1 µM,> 10 µM
same,IC50,second compound 0.316 µM,> 10 µM
same,IC50,second compound 1 µM,> 10 µM
same,IC50,second compound 3.16 µM,> 10 µM
same,IC50,second compound 10 µM,< 0.0316 µM
same,"viability, T/C",[1],109%
same,"viability, T/C",[2],88.7%
same,"viability, T/C",[3],96%
same,"viability, T/C",[4],83.6%
same,"viability, T/C",[5],97.4%
same,"viability, T/C",[6],71.6%
same,"viability, T/C",[7],106%
same,"viability, T/C",[8],93%
same,"viability, T/C",[9],97.8%
same,"viability, T/C",[10],85.6%
same,"viability, T/C",[11],91.1%
same,"viability, T/C",[12],82%
same,"viability, T/C",[13],88.8%
same,"viability, T/C",[14],91.8%
same,"viability, T/C",[15],81%
same,"viability, T/C",[16],102%
same,"viability, T/C",[17],81.2%
same,"viability, T/C",[18],67.6%
same,"viability, T/C",[19],74.2%
same,"viability, T/C",[20],66%
same,"viability, T/C",[21],83%
same,"viability, T/C",[22],82.3%
same,"viability, T/C",[23],83.3%
same,"viability, T/C",[24],61.9%
same,"viability, T/C",[25],62.4%
same,"viability, T/C",[26],61.1%
same,"viability, T/C",[27],60.5%
same,"viability, T/C",[28],71.8%
same,"viability, T/C",[29],71.3%
same,"viability, T/C",[30],57%
same,"viability, T/C",[31],43.6%
same,"viability, T/C",[32],33.7%
same,"viability, T/C",[33],39.9%
same,"viability, T/C",[34],44.4%
same,"viability, T/C",[35],45.5%
same,"viability, T/C",[36],37.1%
CC1(C)CCC(Nc2ncc(C(F)(F)F)c(-c3c[nH]c4c(P(C)(C)=O)c(C#N)ccc34)n2)CN1 (stereo not drawn) + Cc1nc(NC(=O)N2CCCC2C(N)=O)sc1-c1ccnc(C(C)(C)C(F)(F)F)c1,IC50,second compound 0.0316 µM,< 0.0316 µM
same,IC50,second compound 0.1 µM,< 0.0316 µM
same,IC50,second compound 0.316 µM,< 0.0316 µM
same,IC50,second compound 1 µM,< 0.0316 µM
same,IC50,second compound 3.16 µM,< 0.0316 µM
same,IC50,second compound 10 µM,< 0.0316 µM
same,"viability, T/C",[1],20.2%
same,"viability, T/C",[2],20.2%
same,"viability, T/C",[3],26.7%
same,"viability, T/C",[4],25.1%
same,"viability, T/C",[5],29.1%
same,"viability, T/C",[6],2.24%
same,"viability, T/C",[7],22.8%
same,"viability, T/C",[8],21.6%
same,"viability, T/C",[9],25.9%
same,"viability, T/C",[10],23%
same,"viability, T/C",[11],28.9%
same,"viability, T/C",[12],1.52%
same,"viability, T/C",[13],17.8%
same,"viability, T/C",[14],20%
same,"viability, T/C",[15],19.3%
same,"viability, T/C",[16],25%
same,"viability, T/C",[17],24%
same,"viability, T/C",[18],1.82%
same,"viability, T/C",[19],14.9%
same,"viability, T/C",[20],18%
same,"viability, T/C",[21],14.6%
same,"viability, T/C",[22],20.5%
same,"viability, T/C",[23],20.2%
same,"viability, T/C",[24],1.74%
same,"viability, T/C",[25],13.2%
same,"viability, T/C",[26],15.6%
same,"viability, T/C",[27],14.9%
same,"viability, T/C",[28],15.1%
same,"viability, T/C",[29],18.4%
same,"viability, T/C",[30],1%
same,"viability, T/C",[31],12.7%
same,"viability, T/C",[32],10.6%
same,"viability, T/C",[33],11.6%
same,"viability, T/C",[34],17.2%
same,"viability, T/C",[35],12.3%
same,"viability, T/C",[36],0.79%
